Measurements from PubChem BioAssay (NCI).
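1) Cells in 96-well plates. 2) Compound, 48 h, 5 concentrations. 3) Linear interpolation between surrounding doses. 4) Unreached endpoint = highest concentration. At the TGI there is no net growth.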

What was measured:
Assay in all cases: NCI-60 cell line screen, 48 h
MALME-3M melanoma = tested on: MALME-3M melanoma
U251 CNS = tested on: U251 CNS
OVCAR-3 ovarian = tested on: OVCAR-3 ovarian
SF-539 CNS = tested on: SF-539 CNS
COLO 205 colon = tested on: COLO 205 colon
SK-MEL-5 melanoma = tested on: SK-MEL-5 melanoma
HOP-92 NSCLC = tested on: HOP-92 NSCLC
MCF7 breast = tested on: MCF7 breast
BT-549 breast = tested on: BT-549 breast
UACC-62 melanoma = tested on: UACC-62 melanoma
MOLT-4 leukemia = tested on: MOLT-4 leukemia

Structure (SMILES) | TGI (MALME-3M melanoma) [µM] | TGI (U251 CNS) [µM] | TGI (OVCAR-3 ovarian) [µM] | TGI (SF-539 CNS) [µM] | TGI (COLO 205 colon) [µM] | TGI (SK-MEL-5 melanoma) [µM] | TGI (HOP-92 NSCLC) [µM] | TGI (MCF7 breast) [µM] | TGI (BT-549 breast) [µM] | TGI (UACC-62 melanoma) [µM] | TGI (MOLT-4 leukemia) [µM]
CCN(CC)CCNc1ccc2nnn3c4ccc(OC(C)=O)cc4c(=O)c1c23 | 16.3 | 15.5 | 22.2 | 9.47 | 14.6 | 11.2 | 17.7 | 16.2 | 27.2 | 25.3 | 
C[n+]1c(-c2ccc(/C=N/Nc3n[nH]c(=S)n3N/N=C/c3ccc(-c4cn5ccccc5[n+]4C)cc3)cc2)cn2ccccc21 |  | > 100 |  | > 100 | > 100 | > 100 |  | > 100 |  |  | > 100
CCOc1ccc(-n2c(=O)n3c(Nc4ccc(Cl)cc4)nc4c(c(=O)n(C)c(=O)n4C)n3c2=O)cc1 |  | > 100 | 52.5 | > 100 | 46.4 | 36 | 48.2 | > 100 | 64.3 | 46.3 | 69.9
COc1ccc(C2c3c(-c4ccccc4)nn(-c4ccccc4)c3Oc3ncn(N)c(=N)c32)cc1OC (centres undefined) | 3.24 | > 100 | 2.95 | 2.6 | 3.53 |  | 11 | 3.26 | 15 | 3.72 | > 34.4
CCCCCCCCCCCCCCCCCCNC(=S)/N=C/c1c(O)cc(C)oc1=O |  | > 100 | > 100 | 62.3 | > 100 | > 100 | > 100 | > 100 | 40.6 | > 100 | > 100
COc1ccc(CCNC(=S)/N=C\C2=C(O)c3ccccc3C2=O)cc1OC | > 100 | > 100 | 0.746 | > 100 | > 100 | > 100 | 8.92 | > 100 |  | > 100 | > 100
CC(C)(CO)NC(=O)c1cccc(C(=O)NC(C)(C)CO)c1Br | > 100 | > 100 |  | > 100 | > 100 | > 100 | > 100 | > 100 | > 100 | > 100 | > 100
CC1(C)N=C(/C(C#N)=[N+](/[O-])C(=O)c2ccccc2)C(C)(C)N1O | > 100 | > 100 | > 100 | > 100 | > 100 | > 100 | > 100 | > 100 |  | > 100 | > 100
O=C1CSC(c2c(O)ccc3ccccc23)N1n1c(=S)[nH]nc(/C=C/c2c(O)ccc3ccccc23)c1=O (centres undefined) | 16.8 | 16.4 | 17.7 |  |  |  | 65.3 | 18.9 | 23.5 | 10.1 | > 100
CC1(C)CC(=O)C2=C(C1)N(c1ccccc1)C1(O)C=CC(=O)C3=C(O)c4ccccc4C(=O)C321 (centres undefined) | 66.8 | > 100 | > 100 | 70.6 | > 100 |  | 58.5 | > 100 | 67.9 | 63.5 | > 100
